Drawing on paper PMC5413979 (Nature Communications, 2017), this text covers Km for one molecule.

Molecules are shown by their SMILES.

The term Km denotes the substrate concentration at which the rate is half of its maximum.

The target of this assay is T1, VcINDY (Vibrio cholerae, UniProt Q9KNE0).
T1 construct: gene VC_A0025

Turning to `O=C(O)CCC(=O)O` [succinate], the Km came out at 220 µM.
